Measured values reported in PubChem BioAssay AID248 (DTP/NCI, 2004).
Where “and” joins values, the source holds several entries; their conditions need not be identical. Identical values can stand only once. Inconclusive results and toxic doses are left out. No stated cut-off is given here; in the data, active means T/C of 150% or more; inactive means T/C below 125%.

Test system: L1210 leukemia ip in BDF1 mice, survival T/C
Assay: NCI In Vivo Anticancer Drug Screen. Data for tumor model L1210 Leukemia (intraperitoneal) in B6D2F1 (BDF1) mice
Conditions: endpoint: mean survival time, higher = longer survival
In short: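 Transplantable tumor model; survival measured in treated vs vehicle control mice. Value = treated/control.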

[1] = dose: 100.0 mg/kg/injection, schedule: Q04DX002 (ip), vehicle: saline with Tween-80
[2] = dose: 200.0 mg/kg/injection, schedule: Q04DX002 (ip), vehicle: saline with Tween-80
[3] = dose: 400.0 mg/kg/injection, schedule: Q04DX002 (ip), vehicle: saline with Tween-80
[4] = dose: 100.0 mg/kg/injection, schedule: Q04DX002 (ip), vehicle: Klucel (hydroxypropylcellulose) (HPC)
[5] = dose: 200.0 mg/kg/injection, schedule: Q04DX002 (ip), vehicle: Klucel (hydroxypropylcellulose) (HPC)
[6] = dose: 400.0 mg/kg/injection, schedule: Q04DX002 (ip), vehicle: Klucel (hydroxypropylcellulose) (HPC)
[7] = dose: 100.0 mg/kg/injection, schedule: Q01DX009 (ip), vehicle: saline
[8] = dose: 200.0 mg/kg/injection, schedule: Q01DX009 (ip), vehicle: saline
[9] = dose: 100.0 mg/kg/injection, schedule: Q01DX001 (ip), vehicle: saline with Tween-80
[10] = dose: 100.0 mg/kg/injection, schedule: Q01DX009 (ip), vehicle: saline with Tween-80
[11] = dose: 100.0 mg/kg/injection, schedule: Q04DX003 (ip), vehicle: saline with Tween-80
[12] = dose: 200.0 mg/kg/injection, schedule: Q01DX001 (ip), vehicle: saline with Tween-80
[13] = dose: 200.0 mg/kg/injection, schedule: Q01DX009 (ip), vehicle: saline with Tween-80
[14] = dose: 200.0 mg/kg/injection, schedule: Q04DX003 (ip), vehicle: saline with Tween-80
[15] = dose: 400.0 mg/kg/injection, schedule: Q04DX003 (ip), vehicle: saline with Tween-80
[16] = dose: 50.0 mg/kg/injection, schedule: Q01DX009 (ip), vehicle: saline
[17] = dose: 100.0 mg/kg/injection, schedule: Q04DX003 (ip), vehicle: saline
[18] = dose: 200.0 mg/kg/injection, schedule: Q04DX003 (ip), vehicle: saline
[19] = dose: 400.0 mg/kg/injection, schedule: Q04DX003 (ip), vehicle: saline
[20] = dose: 400.0 mg/kg/injection, schedule: Q01DX009 (ip), vehicle: saline with Tween-80
[21] = dose: 100.0 mg/kg/injection, schedule: Q01DX001 (ip), vehicle: saline
[22] = dose: 200.0 mg/kg/injection, schedule: Q01DX001 (ip), vehicle: saline
[23] = dose: 400.0 mg/kg/injection, schedule: Q01DX001 (ip), vehicle: saline
[24] = dose: 50.0 mg/kg/injection, schedule: Q01DX001 (ip), vehicle: saline

Measured: T/C

CN1C(=O)CC(C(=O)CBr)(c2ccccc2)C1=O (stereo not given)
inactive: dose: 25.0 mg/kg/injection, schedule: Q04DX003 (ip), vehicle: saline with Tween-80 109 % of control | dose: 50.0 mg/kg/injection, schedule: Q04DX003 (ip), vehicle: saline with Tween-80 101 % of control

Cc1c(O)c2ccc(Cl)cc2n(C)c1=O
inactive: [1] 100 % of control | [2] 94 % of control | [3] 103 % of control

Nc1nccnc1Cl
inactive: dose: 75.0 mg/kg/injection, schedule: Q01DX001 (ip), vehicle: acetone 104 % of control | dose: 150.0 mg/kg/injection, schedule: Q01DX001 (ip), vehicle: acetone 104 % of control | dose: 300.0 mg/kg/injection, schedule: Q01DX001 (ip), vehicle: acetone 96 % of control

O=C(OCC(OC(=O)c1ccccc1)C(OC(=O)c1ccccc1)C(COC(=O)c1ccccc1)OC(=O)c1ccccc1)c1ccccc1 (stereo not given)
inactive: [4] 93 % of control | [5] 105 % of control | [6] 93 % of control

C=COCCC(C(=O)OCC)C(=O)OCC
inactive: [7] 100 % of control | [8] 96 % of control | dose: 400.0 mg/kg/injection, schedule: Q01DX009 (ip), vehicle: saline 100 % of control

c1n[nH]c2c1CCCC2
inactive: [9] 89 % of control | [10] 98 % of control | [1] 97 % of control and 91 % of control | [11] 96 % of control and 104 % of control | [12] 86 % of control | [13] 98 % of control | [2] 94 % of control and 92 % of control | [14] 98 % of control and 108 % of control | [3] 94 % of control | [15] 100 % of control and 92 % of control

C[n+]1ccccc1/C=C/c1ccc2c(c1)OCO2
inactive: dose: 12.5 mg/kg/injection, schedule: Q01DX009 (ip), vehicle: Klucel (hydroxypropylcellulose) (HPC) 94 % of control | dose: 12.5 mg/kg/injection, schedule: Q04DX003 (ip), vehicle: Klucel (hydroxypropylcellulose) (HPC) 95 % of control | dose: 25.0 mg/kg/injection, schedule: Q01DX009 (ip), vehicle: Klucel (hydroxypropylcellulose) (HPC) 92 % of control | dose: 25.0 mg/kg/injection, schedule: Q04DX003 (ip), vehicle: Klucel (hydroxypropylcellulose) (HPC) 94 % of control

CC1CC2CCC1C2O (stereo not given)
inactive: dose: 37.5 mg/kg/injection, schedule: Q04DX003 (ip), vehicle: saline 100 % of control | dose: 75.0 mg/kg/injection, schedule: Q04DX003 (ip), vehicle: saline 97 % of control | dose: 150.0 mg/kg/injection, schedule: Q04DX003 (ip), vehicle: saline 90 % of control

CC(C)OCCCN=C(N)N
inactive: dose: 12.5 mg/kg/injection, schedule: Q01DX009 (ip), vehicle: saline 100 % of control | dose: 25.0 mg/kg/injection, schedule: Q01DX009 (ip), vehicle: saline 98 % of control | dose: 25.0 mg/kg/injection, schedule: Q04DX003 (ip), vehicle: saline 101 % of control | [16] 102 % of control and 104 % of control | dose: 50.0 mg/kg/injection, schedule: Q04DX003 (ip), vehicle: saline 96 % of control | [17] 96 % of control

CCCP(CCC)N(CC)CC
inactive: [17] 107 % of control | [18] 101 % of control | [19] 104 % of control

c1csc([Si](c2cccs2)(c2cccs2)c2cccs2)c1
inactive: [1] 103 % of control | [2] 89 % of control

N#Cc1cccn1-c1cccc2c(-n3cccc3C#N)cccc12
inactive: dose: 25.0 mg/kg/injection, schedule: Q04DX002 (ip), vehicle: Klucel (hydroxypropylcellulose) (HPC) 101 % of control | dose: 50.0 mg/kg/injection, schedule: Q04DX002 (ip), vehicle: Klucel (hydroxypropylcellulose) (HPC) 97 % of control | [4] 101 % of control

COc1ccc([N+](=O)[O-])cc1Br
inactive: [10] 100 % of control | [13] 96 % of control | [20] 98 % of control

C/C(CC(=O)Nc1ccc(Cc2ccc(Cl)cc2)cc1)=N/Nc1ccc([N+](=O)[O-])cc1[N+](=O)[O-]
inactive: [21] 94 % of control | [22] 101 % of control

Cn1c(=O)n(C)c2ccccc21
inactive: [16] 110 % of control | [7] 106 % of control | [17] 108 % of control | [18] 108 % of control

COC(=O)/C=C(\C)Nc1ccc(C(=O)C2CCCCC2)cc1
inactive: dose: 100.0 mg/kg/injection, schedule: Q01DX001 (ip), vehicle: other 90 % of control | dose: 200.0 mg/kg/injection, schedule: Q01DX001 (ip), vehicle: other 95 % of control | dose: 400.0 mg/kg/injection, schedule: Q01DX001 (ip), vehicle: other 96 % of control

O=C1NC2CCCCCCC12 (stereo not given)
inactive: dose: 100.0 mg/kg/injection, schedule: Q04DX002 (ip), vehicle: saline + alcohol 119 % of control | dose: 200.0 mg/kg/injection, schedule: Q04DX002 (ip), vehicle: saline + alcohol 105 % of control | dose: 400.0 mg/kg/injection, schedule: Q04DX002 (ip), vehicle: saline + alcohol 105 % of control

O=C(O)c1cccc(F)c1.[Ni]
inactive: dose: 25.0 mg/kg/injection, schedule: Q04DX002 (ip), vehicle: gum acacia 100 % of control | dose: 50.0 mg/kg/injection, schedule: Q04DX002 (ip), vehicle: gum acacia 103 % of control | dose: 100.0 mg/kg/injection, schedule: Q04DX002 (ip), vehicle: gum acacia 117 % of control

CCCCCCCCN(c1ccc(C(=O)O)cc1)S(=O)(=O)c1ccc(C)cc1
inactive: dose: 75.0 mg/kg/injection, schedule: Q01DX009 (ip), vehicle: Klucel (hydroxypropylcellulose) (HPC) 103 % of control | dose: 150.0 mg/kg/injection, schedule: Q01DX009 (ip), vehicle: Klucel (hydroxypropylcellulose) (HPC) 100 % of control | dose: 300.0 mg/kg/injection, schedule: Q01DX009 (ip), vehicle: Klucel (hydroxypropylcellulose) (HPC) 90 % of control

Cc1cccc(NC(=O)Oc2cc(C)c(Cl)cc2C(C)C)c1
inactive: [9] 103 % of control | [10] 95 % of control and 103 % of control | [1] 105 % of control and 108 % of control | [11] 90 % of control | [12] 104 % of control | [13] 98 % of control and 103 % of control | [2] 97 % of control and 87 % of control | [14] 98 % of control | dose: 400.0 mg/kg/injection, schedule: Q01DX001 (ip), vehicle: saline with Tween-80 106 % of control | [20] 95 % of control and 98 % of control | [3] 94 % of control and 100 % of control | [15] 100 % of control

CCCCOC(=O)Nc1ccccc1OCC
inactive: [4] 109 % of control | [5] 106 % of control | [6] 98 % of control

COc1cc(OC)c(OC)cc1OC
inactive: [10] 95 % of control | [13] 97 % of control

c1ccc2c(c1)ccc1[nH]c3ccccc3c12
inactive: [21] 120 % of control | [22] 96 % of control | [23] 93 % of control

O=C(O)C(Br)C(Br)C(=O)Nc1ccc(Cl)c(Cl)c1 (stereo not given)
inactive: [10] 101 % of control | [13] 104 % of control | [20] 93 % of control

CC(O)c1cccc(NC(=O)NC(C)(C)C)c1 (stereo not given)
inactive: dose: 100.0 mg/kg/injection, schedule: Q01DX009 (ip), vehicle: Klucel (hydroxypropylcellulose) (HPC) 102 % of control | dose: 200.0 mg/kg/injection, schedule: Q01DX009 (ip), vehicle: Klucel (hydroxypropylcellulose) (HPC) 107 % of control | dose: 400.0 mg/kg/injection, schedule: Q01DX009 (ip), vehicle: Klucel (hydroxypropylcellulose) (HPC) 113 % of control

Cc1cc[n+](Cc2cc3ccccc3[nH]c2=O)cc1
inactive: dose: 12.5 mg/kg/injection, schedule: Q01DX001 (ip), vehicle: saline 96 % of control | dose: 25.0 mg/kg/injection, schedule: Q01DX001 (ip), vehicle: saline 100 % of control | [24] 95 % of control

COC1OCCCC1OC(=O)c1ccccc1 (stereo not given)
inactive: [24] 109 % of control | [21] 103 % of control | [22] 105 % of control | [23] 94 % of control

C1=C/C2OC2CCCC/1 (stereo not given)
inactive: [16] 96 % of control | [7] 97 % of control | [17] 102 % of control | [8] 102 % of control | [18] 87 % of control | [19] 93 % of control
